Source: patent publication US20080103209A1, “Compounds And Methods For Treating Non-Inflammatory Pain Using Ppar Alpha Agonists” (The Regents of The University of California, priority 2004, published 2008)

How the values were obtained:
human PPARα = biological target: T1, human PPARα (Homo sapiens, UniProt Q07869); assay: PPARα transactivation assay (HeLa cells, luciferase reporter); assay type: cell-based; conditions: HeLa cells, n=12; read-out: half-maximal effective concentration (EC50), PPARα activation
T1 construct: expressed in transfected cells
T1 sequence (Q07869 239-466 limits assumed): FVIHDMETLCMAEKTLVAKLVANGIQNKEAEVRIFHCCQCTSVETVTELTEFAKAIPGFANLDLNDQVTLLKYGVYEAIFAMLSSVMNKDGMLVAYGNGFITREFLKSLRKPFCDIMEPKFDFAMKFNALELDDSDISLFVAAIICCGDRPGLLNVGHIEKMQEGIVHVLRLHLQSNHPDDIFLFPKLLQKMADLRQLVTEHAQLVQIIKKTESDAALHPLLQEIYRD
Protocol: Transactivation assays were performed as previously described [Fu et al., Nature 425:90-93 (2003)].
PPAR-α transactivation. Plasmids were generated which contained the ligand-binding domain of human PPAR-α (nucleotides 499-1,407) fused to the DNA-binding domain of yeast GAL4 under control of the human cytomegalovirus promoter and to a neomycin resistance gene to provide stable selection with 0.2 mg-ml-1 G418 (Calbiochem). We cultured HeLa cells in Dulbecco's-modified Eagles's medium (DMEM) supplemented with fetal bovine serum (10%), transfected them with Fugene 6 ([…], Roche) containing the pFR-luc plasmid ([…], Stratagene) and, 18 h later, replaced the media with DMEM containing hygromycin (0.1 mg ml−1, Calbiochem). […] Cells were maintained in DMEM containing hygromycin and G418. For transactivation assays, we seeded cells in 6-well plates and incubated them for 7 h in DMEM containing hygromycin and G418, plus appropriate concentrations of test compounds. We used a dual-luciferase reporter assay system (Promega) and an MLX Microtiter® plate luminometer (Dynex) to determine luciferase activity in cell lysates.

PKAα catalytic subunit = assay: Immunoblot of lumbar spinal cord extracts, PKAα catalytic subunit; assay type: in vivo, mouse; conditions: neuropathic mice, PEA 30 mg-kg^−1 s.c. once daily for two weeks; change not statistically significant
Protocol: (§1) Opiate analgesics have a high liability to produce tolerance, a progressive loss of pharmacological activity caused by repeated drug administrations (Waldhoer et al., Annu Rev Biochem, 73, 953 (2004)). To assess whether tolerance develops to the antihyperalgesic effects of PPARα agonists, PEA (30 mg-kg^−1, s.c.) was administered once a day for 14 consecutive days from the time of surgery, measuring mechanical and thermal hyperalgesia at day 7 and 14.
(§2) Immunoblot analysis. Lumbar spinal cord tissue was weighed, homogenized in Tris-HCl (20 mM, pH 7.5), 10 mM NaF, 150 mM NaCl, 1% Nonidet P-40, 1 mM PMSF, 1 mM Na3VO4, leupeptin and trypsin inhibitor (10 μg/ml). After 1 h, the tissue lysates were subjected to centrifugation ay 100,000×g for 15 min at 4° C. Protein concentrations were estimated using a Bio-Rad protein assay and bovine serum albumin as a standard. Equal amounts of protein (20 μg) were dissolved in Laemmli sample buffer, boiled for 5 min, subjected to sodium dodecyl sulphate-polyacrylamide gel electrophoresis (8% polyacrylamide) and transferred onto nitrocellulose membranes at 240 mA for 40 min at room temperature. […] The films were scanned and densitometrically analysed with a model GS-700 imaging densitometer.

[1] = system: PKA-IIα regulatory subunit phosphorylation on Ser^96; assay: Immunoblot of lumbar spinal cord extracts, phosphorylated PKA regulatory subunit; assay type: in vivo, mouse; conditions: neuropathic mice, PEA 30 mg-kg^−1 s.c. once daily for two weeks
Protocol: as §1, §2

[2] = Tissue PEA levels after subcutaneous PEA (LC/MS); assay type: in vivo, mouse; conditions: daily PEA injections s.c.
Protocol: LC/MS analysis. PEA was measured by high-performance liquid chromatography/tandem mass spectrometry. Tissue samples were weighed, cut into 1 mm^2 pieces, and incubated with 1 mL of acetonitrile at 4° C. overnight. Samples of the incubates (100 μl) were transferred to 96-well plates, diluted with 250 μL of acetonitrile containing [H2]-ethanolamine-OEA as an internal standard, and injected into the HPLC. HPLC analyses were carried out on a Waters 2790 Alliance system (Milford, Mass.) using a Phenomenex Synergi Polar-RP column (2 mm×150 mm, 4μ; Torrance, Calif.) and a mobile phase of 0.1% formic acid in water (solvent “A”) and 0.1% formic acid in acetonitrile (solvent “B”). Run conditions were isocratic (25% A and 75% B), at a flow rate of 0.3 mL min^−1, column temperature of 45° C., and a run time of 3 minutes. The HPLC system was interfaced with a Micromass Ultima (Beverly, Mass.) tandem mass spectrometer. The samples were analyzed using an electrospray probe in the positive ionization mode with the cone voltage set at 40 V and capillary at 3.2 kV. The source and desolvation temperature settings were 130° C. and 500° C., respectively. The voltage of the CID chamber was set at −17 eV. Multiple reaction monitoring was used for the detection of PEA as [M+H]^+ (m/z 300>62) and the standard as [M+H]^+ (m/z 330>66).

EC50 (human PPARα): 3 µM
brain PEA levels vs vehicle-treated mice [2]: significantly higher
Compound: CCCCCCCCCCCCCCCC(=O)NCCO [PEA, palmitoylethanolamide]
spinal tissue levels of PKA α catalytic subunit (PKAα catalytic subunit): slightly decreased
phosphorylation of PKA-IIα regulatory subunit at Ser^96 [1]: reduced
